Test results as given in patent US10919896B2, “Preparation and uses of pyrimidinone derivatives” (Cancer Research Technology Limited, priority 2016, dated 2021).
Structures can show the parent of a compound that is named as a salt.

What was measured:
[1] = test system: Cdc7 (pS53MCM2 levels in SW48 cells); assay: Cdc7 Cell Pharmacodynamics Assay Method 3: pS53MCM2 levels in SW48 cells, 6 hours; type: cell-based; settings: Homo sapiens, SW48, 6 h, read-out: Biomarker Method 3 (pEC50) (converted)
From the text: This protocol describes a method to investigate the inhibition of Cdc7 activity by measuring pS53MCM2 levels in cells, after treatment with compounds.
• SW48 cells • RPMI 1640 (Sigma, R5886) • 10% FCS (Sera Laboratories International Ltd, EU000F Batch:108005) • 100× L-Glutamine (Invitrogen, 25030-024) • D-Glucose Solution (10%) (Sigma, G8644) • HEPES Buffer Solution (Sigma, 83264) • Sodium Pyruvate (Sigma, S8636) • PBS (Fisger, BP399-4) • Trypsin/EDTA (Invitrogen 25300-054) • 2% BSA in PBS • Cell Extraction Buffer (Invitrogen FNN0011) • Protease inhibitor cocktail (Sigma P-2714) • PMSF 0.3M stock in DMSO (Sigma P7626) • Antibody-rabbit pMCM2 Ser53 (Bethyl #A300-756A) • Antibody-goat MCM2 (Bethyl #A300-122A) • Antibody-goat Anti Rabbit IgG HRP (Perbio Science UK Ltd 31462) • SuperSignal ELISA Pico Chemiluminescent Substrate (Perbio Science UK Ltd 37070) Method • Plate 30,000 SW48 cells per well in standard TC treated 96 well plate in 100 μL complete RPMI 1640 medium. • Allow cells to settle overnight in incubator set at 37° C. and 5% CO2. • Cell treatment: prepare a 384 well plate containing 80 μl PBS/well. The PBS should be at room temperature—to be referred to as intermediate plate. Transfer 2 μL of compound from mother plate to intermediate (daughter plate) 1:40 dilution, then 5 μL intermediate to cell (daughter) plate. • Once all cells are treated place the cells back to the incubator and incubate for 6 hours. • Dilute the capture antibody (total MCM2#A300-122A) 1 in 250 in the required volume of PBS (5 mL per assay plate, plus 5 mL for dead volume) and add 50 μL to each well of a Hybond plate. Seal the plate and incubate at room temperature for a minimum of 2 hours. • Defrost aliquot of Invitrogen Cell Extraction Buffer (FNN0011) on ice and supplement with appropriate volume of both Sigma protease inhibitor cocktail (P-2714) and PMSF (final conc 1 mM from a 1 M stock in DMSO). • After the 6 hour cell treatment time, tap out the media from the assay plates and place them in the −80° C. freezer for at least 5 minutes. • Remove plates from freezer and add 20 μL of ice cold complete lysis buffer, with the multidrop. Incubate cells for 30 minutes at 4° C. • Add 80 μL per well 2% BSA. • Flick out the remaining liquid from the capture plate and transfer 80 μL from the lysis plate to the same wells in the capture/ELISA plate, using the Biomek. Cover with plate seal and incubate plates overnight at 4° C. • Wash plates with PBS, remove any residual remaining liquid and add 50 μL per well of pMCM2 Ser53 antibody (#A300-756A) diluted 1 in 100 in 2% BSA. Cover plate and incubate at room temperature for 2 hours with gentle shaking. • Wash plates with PBS, remove any residual remaining liquid and Incubate with 50 μL goat anti rabbit antibody (1 in 800 dilution in 2% BSA), for 1 hour at room temperature. • Wash plates with PBS, remove any residual remaining liquid and add 50 μL mixed SuperSignal Pico substrate. • Incubate each plate for 5 minutes at room temperature shielding the plates from direct light (with a cover plate). Read plates with the luminescent detection.

Cdc7/ASK = Cdc7/ASK (Homo sapiens, UniProt O00311); assay: Cdc7 Biochemical Assay Method 4: off-chip mobility shift assay (Carna Biosciences); parameters: purchased Carna Biosciences; host or cells: baculovirus expression system; settings: off-chip MSA, MCM2 peptide, 5 hours; read-out: Biochemical Method 4 (pIC50) (converted)
Sequence of Cdc7/ASK (O00311 whole entry): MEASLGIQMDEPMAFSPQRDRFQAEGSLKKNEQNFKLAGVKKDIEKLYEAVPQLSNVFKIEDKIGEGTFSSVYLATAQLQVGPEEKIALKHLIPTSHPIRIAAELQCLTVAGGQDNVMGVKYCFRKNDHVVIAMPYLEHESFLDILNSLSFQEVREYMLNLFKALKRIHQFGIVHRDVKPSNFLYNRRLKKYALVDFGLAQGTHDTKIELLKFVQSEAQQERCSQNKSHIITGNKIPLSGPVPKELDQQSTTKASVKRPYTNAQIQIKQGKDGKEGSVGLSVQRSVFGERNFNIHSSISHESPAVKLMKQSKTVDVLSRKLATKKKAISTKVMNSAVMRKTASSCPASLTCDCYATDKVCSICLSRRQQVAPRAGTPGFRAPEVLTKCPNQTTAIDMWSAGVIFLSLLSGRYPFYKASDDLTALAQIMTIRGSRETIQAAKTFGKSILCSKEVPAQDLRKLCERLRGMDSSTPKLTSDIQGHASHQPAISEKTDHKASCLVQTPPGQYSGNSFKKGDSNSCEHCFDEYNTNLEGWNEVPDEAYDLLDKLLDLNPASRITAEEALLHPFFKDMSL
Sequence of Cdc7/ASK (Q9UBU7 whole entry partner): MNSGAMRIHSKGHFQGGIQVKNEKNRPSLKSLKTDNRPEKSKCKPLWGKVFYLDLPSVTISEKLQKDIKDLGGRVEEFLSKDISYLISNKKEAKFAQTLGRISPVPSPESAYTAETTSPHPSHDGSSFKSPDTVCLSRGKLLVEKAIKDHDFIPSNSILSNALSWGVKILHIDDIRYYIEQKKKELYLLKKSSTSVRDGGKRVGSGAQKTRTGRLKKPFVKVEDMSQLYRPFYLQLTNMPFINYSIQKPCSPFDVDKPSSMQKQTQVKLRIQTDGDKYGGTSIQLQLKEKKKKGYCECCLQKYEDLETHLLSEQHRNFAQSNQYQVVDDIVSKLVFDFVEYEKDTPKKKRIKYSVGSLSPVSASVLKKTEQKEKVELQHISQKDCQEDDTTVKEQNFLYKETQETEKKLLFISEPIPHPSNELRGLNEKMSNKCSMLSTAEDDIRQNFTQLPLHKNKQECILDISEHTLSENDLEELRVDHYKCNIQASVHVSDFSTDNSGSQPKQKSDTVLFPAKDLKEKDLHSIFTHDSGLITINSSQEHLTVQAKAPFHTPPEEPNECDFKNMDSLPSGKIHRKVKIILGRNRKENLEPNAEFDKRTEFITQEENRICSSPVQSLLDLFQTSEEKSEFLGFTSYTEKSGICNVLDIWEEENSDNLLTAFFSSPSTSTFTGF
Experimental: This protocol describes a method for assaying Cdc7/ASK for activity. The assay is an off-chip mobility shift assay (MSA) run at Carna Biosciences.
1. Preparation of Test Compound Solution.
The test compound was dissolved in and diluted with dimethylsulfoxide (DMSO) to achieve 100-fold higher concentration which was specified by the sponsor. Then the solution was further 25-fold diluted with assay buffer to make the final test compound solution. Reference compounds for assay control were prepared similarly.
Cdc7/ASK: Full-length human Cdc7 [1-574(end) amino acids of accession number NP_003494.1] was co-expressed as N-terminal GST-fusion protein (92 kDa) with Dbf4(ASK) [1-674(end) amino acids of accession number NP_006707.1] using baculovirus expression system. GST-Cdc7 was purified by using glutathione sepharose chromatography.
3. Assay Reagents and Procedures
Off-chip Mobility Shift Assay (MSA)
1) The […] of ×2 kinase solution were prepared with assay buffer (20 mM HEPES, 0.01% Triton X-100, 1 mM DTT, pH 7.5) and mixed and incubated in a well of polypropylene 384 well microplate for 5 hours at room temperature. 2) […] of Termination Buffer (QuickScout Screening Assist MSA; Carna Biosciences) was added to the well. 3) The reaction mixture was applied to LabChip system (Perkin Elmer), and the product and substrate peptide peaks were separated and quantitated. 4) The kinase reaction was evaluated by the product ratio calculated from peak heights of product (P) and substrate (S) peptides (P/(P+S)).
Reaction time is 5 hours.
The readout value of reaction control (complete reaction mixture) was set as a 0% inhibition, and the readout value of background (Enzyme(−)) was set as a 100% inhibition, then the percent inhibition of each test solution was calculated.
IC50 value was calculated from concentration vs. % Inhibition curves by fitting to a four parameter logistic curve.

O=c1[nH]c(-c2ccncc2)nc(N2CCN[C@H](C(F)(F)F)C2)c1Cl [Compound 139]
EC50 [1]: 4.07 µM

C[C@@H]1CNCCN1c1nc(-c2ccnc(F)c2)[nH]c(=O)c1Cl [Compound 323]
EC50 [1]: 0.0794 µM | IC50 (Cdc7/ASK): 0.00309 µM

O=c1[nH]c(-c2ccnc(F)c2)nc(N2CCCC(F)(F)C2)c1Cl [Compound 90, 5-chloro-4-(3,3-difluoro-1-piperidyl)-2-(2-fluoro-4-pyridyl)-1H-pyrimidin-6-one]
EC50 [1]: 0.589 µM

O=c1[nH]c(-c2ccncc2)nc(N2CCN[C@@H](C(F)(F)F)C2)c1Cl [Compound 180]
EC50 [1]: 0.339 µM

O=c1[nH]c(-c2ccnc(F)c2)nc(N2CCNCC(F)(F)C2)c1Cl [Compound 312, 5-chloro-4-(6,6-difluoro-1,4-diazepan-1-yl)-2-(2-fluoro-4-pyridyl)-1H-pyrimidin-6-one hydrochloride]
EC50 [1]: 0.145 µM | IC50 (Cdc7/ASK): 0.00372 µM
